Data published in patent US6884575B2, “Phosphoprotein target for insulin and its antagonists” (Protemix Corporation Limited, priority 2001, dated 2005).
“And” between values parts separate entries of the source, which are not always exact repeats. Equal entries are not always repeated. Ends that are not written are not given here.

Tests used:
P20 [1] = assay: Phosphorylation of P20 isoforms in 32P-labelled rat EDL muscle strips (2-DE, phosphorimaging); assay type: cell-based; conditions: for radioactivity of P20 isoform S1 / radioactivity of P20 isoform S2 / radioactivity of P20 isoform S3: hormones 50 nM, 30 min, n=4
Experimental: Rat extensor digitorum longus (EDL) muscle strips were prepared from 18 h-fasted rats. Dissection and isolation of muscles were carried out under anaesthesia with pentobarbital (5-7 mg/100 g of body weight, intraperitoneally) as described previously (23). Each muscle was split into three ˜1 mm width strips. Muscle strips were pre-incubated in a shaking incubator at 30° C. for 1 h in 5 ml of Dulbecco's Modified Eagle's medium without sodium phosphate. All incubation media were gassed with a mixture of 95% O2 and 5% CO2. The muscle strips were subsequently transferred to similar flasks containing identical medium plus 0.25 mCi/ml [^32P]-orthophosphate and incubated for a further 4 h to equilibrate the internal ATP pool (23, 24). Human insulin, rat amylin, epinephrine or CGRP were then added to the incubation media for 30 min at stated final concentrations. Reactions were terminated by freezing muscle strips in liquid nitrogen immediately after incubation. Muscle strips were then weighed and stored at −80° C. until further analysis.
Muscle strips were homogenized in 2-DE lysis buffer (9M urea, 2% v/v triton X-100, 2% v/v pharmalyte pH 3-10, 200 mM DTT, 8 mM PMSF) for 5 min on ice. The lysates were briefly sonicated and microcentrifuged at 12,000 rpm for 10 min to remove debris. Protein concentrations were determined by the Bradford method and radioactivity was measured by liquid scintillation counting. ^32P-labelled lysates with equivalent amounts of radioactivity were isoelectrically focused on IPG Drystrip pH 4-7 and pH 3-10 Linear gels using a multiphor RII electrophoresis system according to the manufacturer's instructions. Second dimensional SDS-PAGE was carried out using ExcelGel™ precast 12-14% acrylamide gradient gels. After electrophoresis the gels were fixed in 10% glacial acetic acid, 40% ethanol and the proteins visualized by phosphorimaging or autoradiography.
Autoradiography films were scanned and digitised using a Sharp JX-325 scanner, and protein spots detected, quantitated and analysed using the Melanie II software package, ver. 2.2 (Biorad). The detection parameters were: smooth 2, Laplacian threshold 3, partials threshold 1, saturation 90, peakedness increase 100 and minimum perimeter 10. The matching of multiple features to one feature was not allowed. The pixel value is the optical density (OD). Features were calculated as a percentage of the sum of VOL (the feature's volume, i.e., the integration of OD over the feature's area) for all features on the gel. The radioactivity of protein spots was also detected by a phosphorimager and analysed by MacBAS v2.5 software. […] All the results presented are based on at least three independent experiments. Statistical analysis was performed using the t-test (paired two sample).

Male Wistar rats = assay type: in vivo, rat
Experimental: (§1) All experimental protocols were approved by the Institutional Animal Ethics Committee. Male Wistar rats were injected with dexamethasone (3.1 mg/kg/day, intraperitoneally) for 7 days. The daily weights of rats in both control and dexamethasone-treated groups were monitored. […] Rats were fasted for 18 h prior to each experiment and were killed by cervical dislocation. Blood was obtained by cardiac puncture from anesthetized animals. The mean blood glucose concentration was 5.4±0.2 mM and 10.8±0.6 mM in control and dexamethasone-treated rats, respectively, as measured with a YSI 2300STAT glucose/lactate analyser (Yellow Springs Instruments). […] Insulin and amylin concentrations in the blood of normal and insulin resistant rats were determined as described (17). Rats with insulin resistance induced by chronic high fat feeding were generated as described previously (26).

skeletal muscle = assay: In vitro [14C(U)]-D-glucose incorporation assay in skeletal muscle (insulin-stimulated glycogen synthesis); assay type: cell-based, rat; conditions: muscle of dexamethasone-treated rats
Experimental: as §1

P20 [2] = assay: P20 mRNA (northern blot) and protein (western blot) in EDL muscle; assay type: cell-based, rat; conditions: dexamethasone-injected rats or strips with 50 nM amylin 30 min
Experimental: About 50 μg proteins from liver, heart, epididymal fat pad, aortic smooth muscle, EDL muscle, soleus muscle tissues and whole blood obtained from 18 h-fasted male Wistar rats were separated by SDS-PAGE and subsequently transferred to nitrocellulose membranes. The membranes were blocked over night at 4° C. and then incubated with rabbit anti-P20 polyclonal antibody (1:1000) for 2 h at room temperature. After incubation with streptavidin-biotinylated horseradish peroxidase-conjugated secondary antibody for another 1 h at room temperature, the proteins immunoreactive to the primary antibody were visualised by enhanced chemiluminescence (ECL) detection according to the manufacturer's instructions.
Total cellular RNA was isolated from EDL muscle of 18 h-fasted control and dexamethasone-treated rats using TRIZOL reagent. 15 μg of RNA from each sample was separated by 1.5% agarose-formaldehyde gel electrophoresis and subsequently transferred to Hybond-N^+ nylon membranes by capillary blotting in 20×SSC. The P20 cDNA probe was labelled with ^32P-dCTP using a random primer labelling system. […] Membranes were then washed, analysed using a phosphorimager and quantitated by MacBAS v2.5 software. For comparison, RNA samples from EDL muscle strips treated with or without 50 nM amylin were also analysed in parallel.

L6 myotubes = assay: 2-deoxyglucose uptake in L6 myotubes; assay type: cell-based
Experimental: L6 myoblast cells were transfected with pCXN2-GLUT4myc (27), or co-transfected with pCXN2-GLUT4myc and pcDNA.P20, using Lipofectamine Plus reagent according to the manufacturer's instructions. Stable transfectants were selected in medium containing the neomycin analogue G418 at 400 μg/ml. At 10 days after transfection, the clones were selected using sterilised steel rings and expanded separately in the presence of G418. Clones that express P20 and myc-tagged GLUT4 were chosen by western blotting and used for further experiments.
L6 cells stably overexpressing myc-tagged GLUT4, or myc-tagged GLUT4 plus P20, were grown in 6-well plates and differentiated into myotubes in DMEM containing 2% fetal bovine serum for 7 days. The cells were deprived of serum for 16 h prior to experiments. For glucose uptake assays, L6 myotubes were rinsed three times with Krebs-Henseleit buffer (KHB) and incubated in KHB with or without hormones (insulin or insulin plus amylin) at the indicated concentrations for 15 min at 37° C. Carrier-mediated glucose uptake of 10 μM 2-deoxy-D-[^3H] glucose in the above solution was measured for 15 min at 37° C. This was followed by rinsing the cells three times with ice-cold PBS and cell disruption with 0.1 N NaOH. The associated radioactivity was determined by liquid scintillation counting. The protein concentration was measured with a BCA protein quantitation kit (PIERCE). The nonspecific uptake was determined in the presence of 10 μM cytochalasin B and subtracted from each value.

[3] = EDL strips from dexamethasone-treated rats, basal = no hormone
[4] = EDL strips from non-diabetic control rats, mean ± SD
[5] = cells overexpressing both P20 and GLUT4myc vs GLUT4myc alone, n=4

Row | Compound | radioactivity of P20 isoform S1 (P20 [1]; [3]) [PSL] | radioactivity of P20 isoform S2 (P20 [1]; [3]) [PSL] | radioactivity of P20 isoform S3 (P20 [1]; [3]) [PSL] | signals of both S2 and S3, fold higher than control rats (P20 [1]; without hormone stimulation, dexamethasone 3.1 mg/kg/day i.p. for 7 days) | mean blood glucose concentration (Male Wistar rats; 3.1 mg/kg/day i.p. for 7 days, 18 h fasted) [mM] | fasted basal plasma concentration of amylin (Male Wistar rats; dexamethasone-treated rats) [pmol/1] | fasted basal plasma concentration of insulin (Male Wistar rats; dexamethasone-treated rats) [pmol/1] | reduction in rates of insulin-stimulated glycogen synthesis (skeletal muscle) | decrease of insulin-induced phosphorylation of S1 (P20 [1]; 50 nM insulin plus 50 nM amylin vs 50 nM insulin alone, normal rats) [%] | radioactivity of P20 isoform S1 (P20 [1]; [4]) [PSL] | radioactivity of P20 isoform S2 (P20 [1]; [4]) [PSL] | radioactivity of P20 isoform S3 (P20 [1]; [4]) [PSL] | P20 mRNA level and protein abundance (P20 [2]) | decrease of insulin-stimulated glucose uptake (L6 myotubes; GLUT4myc alone, 50 nM insulin plus 50 nM amylin) [%] | increase of the inhibitory effect of amylin by P20 overexpression (L6 myotubes; [5]) [%] | effect on phosphorylation of S2 and S3 induced by epinephrine and CGRP (P20 [1]; 50 nM each, normal rats) | decrease of amylin-evoked phosphorylation of S3 (P20 [1]; 50 nM insulin plus 50 nM amylin vs amylin alone, normal rats) | effect on amylin-evoked phosphorylation of S2 and S3 (P20 [1]; diabetic (dexamethasone-treated) rats) | decrease of insulin-stimulated glucose uptake by P20 overexpression (L6 myotubes; [5]) [%] | increase of 2-deoxyglucose uptake over basal level (L6 myotubes; myotubes overexpressing GLUT4myc alone, 50 nM insulin) [fold]
1 | C[C@@H]1C[C@H]2[C@@H]3CCC4=CC(=O)C=C[C@]4(C)[C@@]3(F)[C@@H](O)C[C@]2(C)[C@@]1(O)C(=O)CO [Dexamethasone, dexamethasone] | 439 | 102 | 98.6 | about 5 fold | 10.8 ± 0.6 | 144±17 | 789±94 | over 95% |  |  |  |  |  |  |  |  |  |  |  | 
2 | Amylin: Rat amylin purchased from Bachem; hormone co-secreted with insulin from pancreatic islet β-cells (KCNTATCATQRLANFLVRSSNNLGPVLPPTNVGSNTY; ends and bridges not checked; cysteine pairing not given here; UniProt P12969 38-74, looked up) | 181 | 280 | 208 |  |  |  |  |  | 49 | 191 ± 9 | 289 ± 20 | 226 ± 17 | not changed | 28 | 24±2 |  |  |  |  | 
3 | Insulin: Human insulin was Actrapid from Novo Nordisk | 843 | 96.6 | 92 |  |  |  |  |  |  | 831 ± 40 | 20.3 ± 3.4 | 13.3 ± 1.3 |  |  |  | no effect | 73% and ~74% | little affected | 41±3 | 2.94±0.31
